Experimental data: patent US6486197B1, “Substance ft-0554 and process for producing the same” (The Kitasato Institute, priority 1997, dated 2002)

Key:
[1] = test system: Mucor racemosus KF223 (IFO 4581); experiment: Paper disk antimicrobial activity; assay type: cell-based; set-up: unit not given here; conditions: 1 mg/ml 10 μl on 6 mm paper disk, 24 hours
[2] = test system: Candida albicans KF1; experiment: Paper disk antimicrobial activity; assay type: cell-based; set-up: unit not given here; conditions: 1 mg/ml 10 μl on 6 mm paper disk, 24 hours

Structure (SMILES): CCC(C)/C=C/C=C(\C)CC(C)/C=C/C=C/C1OC(=O)C(O)C2OC12C (centres unmarked) [FT-0554 substance]
- inhibition zone diameter [1]: 10
- inhibition zone diameter [2]: 12
